{
  "source": "paper PMC4929710",
  "about": "“Specificity and mechanism of action of alpha-helical membrane-active peptides interacting with model and biological membranes by single-molecule force spectroscopy” (Scientific Reports, 2016)",
  "key": {"PC/Chol (8:1 w/w) LUVs": {"system": "PC/Chol (8:1 w/w) LUVs", "test": "Single-molecule force spectroscopy (AFM)", "format": "binding", "details": "RMS ± SD; N-terminal Cys peptide on AFM tip via PEG linker; normal eukaryotic model membrane", "text": "(§1) Based on the above results, five selected peptides of V13L, A12L/A20L, V13K, V13E, and L6A/L17A, with different hydrophobicity and charges were used to examine the interaction probabilities and forces between peptides and membranes, both on the lipid model membranes and on the biological membranes by SMFS based on AFM, respectively. A cysteine residue was covalently introduced to the N-terminus of peptides and provided a free sulfhydryl group to modify the tips of the AFM. A PEG linker was used since each heterobifunctional PEG–NHS linker (approximately 20 nm) can only covalently connect with a single peptide molecule, which guarantees a single-molecule interaction between MAPs and biological membranes in real time[19]. If an AFM tip was functionalized with two or more peptides, where several peaks were recorded. In the reports, data with two peaks were not collected and calculated. For one force–distance cycle, one peptide-functionalized AFM tip approached the model and biological membranes right on the top, and the subsequent tip was withdrawn from the cell membranes to retrace the process. […] In addition, blocking experiment was used to test the specificity of these force events. As the electrostatic attraction is one important reason for peptides approaching model membranes and biological membranes, the Tris-HCl buffer including plenty amino groups[20] was injected into the working chamber and inhibits the interactions between MAPs and model membranes/biological membranes. […] The unbinding forces of V13L against different model membranes and biological membranes with the loading rate of 1 × 10^5 pN s^−1 are shown in Fig. 3c,f–h,j–l.\nLipids using the freeze-thaw method as described previously, followed by extrusion through […] double-stacked nuclepore filters using an Mini-Extruder (Avanti Polar Lipids, Inc.)[11][27].\n(§2) The AFM tip was first washed with concentrated sulfuric acid and hydrogen peroxide (3:1, v:v). The tip was dried using ozone (O3) for 15 min and dried overnight in a dryer. The tip was then modified with APTES under an argon atmosphere and the peptide connected with a PEG–NHS linker. Finally, the AFM tip linked with the peptide was washed three times in PBS and kept at 4 °C. A 500-μL LUV suspension was deposited on Lys coated glass and the LUVs were absorbed on the surface for 1 h at 65 °C [9][29]. A. laidlawii was deposited on poly-L-lysine coated glass and absorbed for 1 h at 37 °C [30]. The 3T3-L1 and HeLa cells were cultured on glass slides in Dulbecco’s modified Eagle’s medium (DMEM). Before performing force spectroscopy experiments, the cells were washed with fresh DMEM three times to remove the cell metabolites. Isolation of chicken erythrocytes was carried out at room temperature. […]"}, "A. laidlawii cells": {"system": "A. laidlawii cells", "test": "Single-molecule force spectroscopy (AFM)", "format": "binding, Acholeplasma laidlawii", "details": "RMS ± SD; N-terminal Cys peptide on AFM tip via PEG linker", "text": "as §1\nas §2, with “temperature. Then the erythrocytes were washed three times in 2 mL PBS buffer by centrifuge (1,000 rpm) and resuspended in PBS buffer. 200 μL erythrocyte suspension were deposited onto poly-L-lysine coated glass for 20 min[10].” for “temperature.”"}, "[1]": {"test": "RP-HPLC retention time (peptide hydrophobicity)", "format": "physicochemical", "details": "used as measure of peptide hydrophobicity", "experimental": "All peptides were synthesized by solid-phase peptide synthesis using Fmoc (9-fluorenyl-methoxycar-bonyl) chemistry and rink amide 4-methylbenzhydrylamine resin (MBHA resin; 0.8 mmol/g), as described previously. The crude peptides were purified on a LC-6A preparative reversed-phase high performance liquid chromatography (RP-HPLC, Shimadzu, Kyoto, Japan) using a Zorbax 300 SB-C8 column (250 × 9.4 mm inner diameter, […] particle size, 300 Å pore size), as described previously. The purity of the peptides was characterized by analytical RP-HPLC, mass spectrometry, and amino acid analysis."}, "PC/PG (7:3 w/w) LUVs": {"system": "PC/PG (7:3 w/w) LUVs", "test": "Tryptophan fluorescence with LUVs", "format": "binding", "details": "PC/PG (7:3 w/w) LUVs versus HEPES buffer, 25 °C", "text": "In order to investigate the interaction between peptides and difference types of cell membranes, three different LUVs were used to mimic a prokaryotic cell membrane (PC/PG), a normal eukaryotic cell membrane (PC/Chol), and a cancer cell membrane (PC/SM/PE/PS/Chol). Tryptophan residue in the peptide sequence was used as a fluorescent probe to examine the interaction of peptides with model membranes. […] For example, in the PC/PG (7:3 w/w) anionic prokaryotic mimicking model membrane, peptides V13L and A12L/A20L had the strongest hydrophobicity with blue shift values of approximately 37 nm and 38 nm, respectively. Conversely, peptide V13E with a negative charge of glutamic acid residue, and peptide L6A/L17A with the lowest hydrophobicity had blue shift values of approximately 18 nm and 17 nm, respectively. […] In addition, within PC/SM/PE/PS/Chol (4.35:4.35:1:0.3:1 w/w) as a cancer-mimicking model membrane, the same results could be obtained in that peptide hydrophobicity correlates with anticancer activity and the blue shift values of peptides.\nIn accordance with previously described methods, LUVs were prepared with PC/PG (7:3 w/w), PC/Chol (8:1 w/w), and PC/SM/PE/PS/Chol (4.35:4.35:1:0.3:1 w/w) to mimic prokaryotic cell, […], membranes, respectively. Lipids using the freeze-thaw method as described previously, followed by extrusion through […] double-stacked nuclepore filters using an Mini-Extruder (Avanti Polar Lipids, Inc.)[11][27].\nThree kinds of LUVs were prepared and cultured in HEPES buffer (pH 7.4, 10 mM HEPES, 150 mM NaCl) and the molar concentration was adjusted to 100 μM. A total of 14 μL of 100 μM MAPs was mixed with 686 μL of 100 μM liposomes at 25 °C for 10 min. A Shimadzu RF-5301PC, (excitation wavelength of […], emission wavelength of 300–450 nm) was used to measure the tryptophan fluorescence. Potassium iodide (KI) as a quencher was added to the previous reaction system for a final concentration of 0.02–0.08 M, respectively. The experimental data were plotted according to the Stern–Volmer equation F0/F = 1 + Ksv[Q], where F0 and F are the fluorescence intensity in the absence or presence of a quencher at concentration [Q], respectively, and Ksv is the Stern–Volmer quenching constant."}},
  "data": [
    {"molecule": "CC[C@H](C)[C@H](NC(=O)[C@H](C)NC(=O)[C@H](CCCCN)NC(=O)[C@H](CC(C)C)NC(=O)[C@H](C)NC(=O)[C@@H](NC(=O)[C@H](Cc1cnc[nH]1)NC(=O)[C@H](CC(C)C)NC(=O)[C@@H](NC(=O)[C@@H](NC(=O)[C@H](CCCCN)NC(=O)[C@H](CCCCN)NC(=O)[C@H](C)NC(=O)[C@H](CO)NC(=O)[C@H](CCCCN)NC(=O)[C@H](Cc1ccccc1)NC(=O)[C@@H](NC(=O)[C@H](CCCCN)NC(=O)[C@H](CC(C)C)NC(=O)[C@H](Cc1ccccc1)NC(=O)[C@H](CO)NC(=O)[C@H](CCCCN)NC(=O)[C@H](Cc1c[nH]c2ccccc12)NC(=O)[C@H](CCCCN)NC(C)=O)[C@@H](C)O)[C@@H](C)O)C(C)C)[C@@H](C)O)C(=O)N[C@@H](CO)C(=O)N[C@@H](CO)C(N)=O", "note": "[Peptide V13K]", "values": [
      {"measurement": "Unbinding force PC/Chol", "setting": "PC/Chol (8:1 w/w) LUVs", "result": "101 ± 37", "unit": "pN"},
      {"measurement": "Unbinding force A. laidlawii", "setting": "A. laidlawii cells", "result": "51 ± 18", "unit": "pN"},
      {"measurement": "tR (RP-HPLC retention time)", "setting": "[1]", "result": 38.790, "unit": "min"},
      {"measurement": "PC/PG Blue shift", "setting": "PC/PG (7:3 w/w) LUVs", "result": 28, "unit": "nm"}
    ]},
    {"molecule": "Ac-KWKSFLKTFKSALKTVLHTALKAISS-NH2 [Peptide V13L]", "values": [
      {"measurement": "Unbinding force PC/Chol", "setting": "PC/Chol (8:1 w/w) LUVs", "result": "98 ± 30", "unit": "pN"},
      {"measurement": "Unbinding force A. laidlawii", "setting": "A. laidlawii cells", "result": "27 ± 9", "unit": "pN"},
      {"measurement": "tR (RP-HPLC retention time)", "setting": "[1]", "result": 53.177, "unit": "min"}
    ]},
    {"molecule": "Ac-KWKSFLKTFKSAEKTVLHTALKAISS-NH2 [Peptide V13E]", "values": [
      {"measurement": "Unbinding force PC/Chol", "setting": "PC/Chol (8:1 w/w) LUVs", "result": "89 ± 34", "unit": "pN"},
      {"measurement": "Unbinding force A. laidlawii", "setting": "A. laidlawii cells", "result": "55 ± 12", "unit": "pN"},
      {"measurement": "tR (RP-HPLC retention time)", "setting": "[1]", "result": 44.290, "unit": "min"}
    ]},
    {"molecule": "Ac-KWKSFAKTFKSAKKTVAHTALKAISS-NH2 [L6A/L17A]", "values": [
      {"measurement": "Unbinding force PC/Chol", "setting": "PC/Chol (8:1 w/w) LUVs", "result": "100 ± 34", "unit": "pN"},
      {"measurement": "Unbinding force A. laidlawii", "setting": "A. laidlawii cells", "result": "41 ± 15", "unit": "pN"},
      {"measurement": "tR (RP-HPLC retention time)", "setting": "[1]", "result": 32.210, "unit": "min"},
      {"measurement": "PC/PG Blue shift", "setting": "PC/PG (7:3 w/w) LUVs", "result": "~17", "unit": "nm"}
    ]}
  ]
}
